Reference: PubChem BioAssay AID248 (DTP/NCI, 2004)
Where “and” joins values, the source holds several entries; their conditions need not be identical. Equal values may be shown once. Inconclusive results and toxic doses are left out.

System: L1210 leukemia ip in BDF1 mice, survival T/C
Experiment: NCI In Vivo Anticancer Drug Screen. Data for tumor model L1210 Leukemia (intraperitoneal) in B6D2F1 (BDF1) mice
Settings: endpoint: mean survival time, higher = longer survival
Procedure, shortened: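 Tumor cells were implanted, animals were treated, and survival was followed. The result divides the treated measurement by the vehicle-control measurement.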

[1] = dose: 12.5 mg/kg/injection, schedule: Q01DX001 (ip), vehicle: saline
[2] = dose: 12.5 mg/kg/injection, schedule: Q01DX009 (ip), vehicle: saline with Tween-80
[3] = dose: 25.0 mg/kg/injection, schedule: Q01DX009 (ip), vehicle: saline with Tween-80
[4] = dose: 25.0 mg/kg/injection, schedule: Q04DX003 (ip), vehicle: saline
[5] = dose: 50.0 mg/kg/injection, schedule: Q04DX003 (ip), vehicle: saline
[6] = dose: 100.0 mg/kg/injection, schedule: Q04DX003 (ip), vehicle: saline
[7] = dose: 200.0 mg/kg/injection, schedule: Q04DX003 (ip), vehicle: saline
[8] = dose: 400.0 mg/kg/injection, schedule: Q04DX003 (ip), vehicle: saline
[9] = dose: 100.0 mg/kg/injection, schedule: Q04DX003 (ip), vehicle: saline with Tween-80
[10] = dose: 200.0 mg/kg/injection, schedule: Q04DX003 (ip), vehicle: saline with Tween-80
[11] = dose: 100.0 mg/kg/injection, schedule: Q01DX001 (ip), vehicle: Klucel (hydroxypropylcellulose) (HPC)
[12] = dose: 200.0 mg/kg/injection, schedule: Q01DX001 (ip), vehicle: Klucel (hydroxypropylcellulose) (HPC)
[13] = dose: 400.0 mg/kg/injection, schedule: Q01DX001 (ip), vehicle: Klucel (hydroxypropylcellulose) (HPC)
[14] = dose: 100.0 mg/kg/injection, schedule: Q01DX009 (ip), vehicle: saline
[15] = dose: 200.0 mg/kg/injection, schedule: Q01DX009 (ip), vehicle: saline
[16] = dose: 100.0 mg/kg/injection, schedule: Q01DX001 (ip), vehicle: carboxymethylcellulose (CMC)
[17] = dose: 200.0 mg/kg/injection, schedule: Q01DX001 (ip), vehicle: carboxymethylcellulose (CMC)
[18] = dose: 100.0 mg/kg/injection, schedule: Q01DX009 (ip), vehicle: saline with Tween-80
[19] = dose: 25.0 mg/kg/injection, schedule: Q04DX003 (ip), vehicle: saline with Tween-80
[20] = dose: 50.0 mg/kg/injection, schedule: Q04DX003 (ip), vehicle: saline with Tween-80
[21] = dose: 50.0 mg/kg/injection, schedule: Q01DX009 (ip), vehicle: saline with Tween-80

## C[n+]1c(/C=C/c2ccc3cccc(O)c3n2)ccc2cccc(O)c21
[1]
  T/C: 100 % of control
[2]
  T/C: 106 % of control
dose: 12.5 mg/kg/injection, schedule: Q04DX003 (ip), vehicle: saline
  T/C: 96 % of control
dose: 25.0 mg/kg/injection, schedule: Q01DX001 (ip), vehicle: saline
  T/C: 107 % of control
[3]
  T/C: 95 % of control
[4]
  T/C: 97 % of control
dose: 50.0 mg/kg/injection, schedule: Q01DX001 (ip), vehicle: saline
  T/C: 102 % of control
[5]
  T/C: 96 % of control

## COc1ccc2c(C(=O)CCC(=O)O)cccc2c1
[6]
  T/C: 104 % of control
[7]
  T/C: 95 % of control
[8]
  T/C: 106 % of control

## CCCCSP(=S)(OCC)OCC
[9]
  T/C: 101 % of control
[10]
  T/C: 88 % of control

## CC(=O)Nc1nc(C(=O)O)c(CCCCc2ccccc2)c(=O)[nH]1
[11]
  T/C: 95 % of control
[12]
  T/C: 98 % of control
[13]
  T/C: 101 % of control

## CCCCCCCCC(=O)CCCCC
[14]
  T/C: 92 % of control
[6]
  T/C: 101 % of control
[15]
  T/C: 94 % of control
[7]
  T/C: 105 % of control
[8]
  T/C: 100 % of control

## CC1(c2cccc([N+](=O)[O-])c2)OCCO1
dose: 100.0 mg/kg/injection, schedule: Q01DX009 (ip), vehicle: other
  T/C: 100 % of control
dose: 100.0 mg/kg/injection, schedule: Q04DX003 (ip), vehicle: other
  T/C: 103 % of control
dose: 200.0 mg/kg/injection, schedule: Q01DX009 (ip), vehicle: other
  T/C: 98 % of control
dose: 200.0 mg/kg/injection, schedule: Q04DX003 (ip), vehicle: other
  T/C: 104 % of control
dose: 400.0 mg/kg/injection, schedule: Q01DX009 (ip), vehicle: other
  T/C: 104 % of control
dose: 400.0 mg/kg/injection, schedule: Q04DX003 (ip), vehicle: other
  T/C: 100 % of control

## CN(C)c1cc2c3c(c1)CCCN3CCC2
dose: 6.25 mg/kg/injection, schedule: Q01DX001 (ip), vehicle: saline
  T/C: 108 % of control
[1]
  T/C: 101 % of control

## OC1(C#CC#CC2(O)CCCCC2)CCCCC1
[6]
  T/C: 92 % of control
[7]
  T/C: 98 % of control
[8]
  T/C: 93 % of control

## OC1C2CCN(CC2)C1CN1CC=C(c2ccccc2)CC1 (stereo not given)
[4]
  T/C: 104 % of control
[5]
  T/C: 101 % of control
[6]
  T/C: 98 % of control

## O=C(O)c1ccc[n+](Cc2ccccc2)c1
dose: 75.0 mg/kg/injection, schedule: Q04DX003 (ip), vehicle: saline
  T/C: 90 % of control
dose: 150.0 mg/kg/injection, schedule: Q04DX003 (ip), vehicle: saline
  T/C: 97 % of control
dose: 300.0 mg/kg/injection, schedule: Q04DX003 (ip), vehicle: saline
  T/C: 94 % of control

## NC(=S)N/N=C/c1ccc(Br)s1
[16]
  T/C: 87 % of control
[17]
  T/C: 100 % of control

## COc1ccc(/C=C\c2nc3ccccc3c(=O)[nH]2)cc1
[9]
  T/C: 95 % of control
[10]
  T/C: 88 % of control
dose: 400.0 mg/kg/injection, schedule: Q04DX003 (ip), vehicle: saline with Tween-80
  T/C: 95 % of control

## CCCP(CCC)N(CC)CC
[6]
  T/C: 107 % of control
[7]
  T/C: 101 % of control
[8]
  T/C: 104 % of control

## Cc1ccc(S(=O)(=O)N/N=C/c2ccc([N+](=O)[O-])s2)cc1
dose: 100.0 mg/kg/injection, schedule: Q04DX003 (ip), vehicle: Klucel (hydroxypropylcellulose) (HPC)
  T/C: 96 % of control
dose: 200.0 mg/kg/injection, schedule: Q04DX003 (ip), vehicle: Klucel (hydroxypropylcellulose) (HPC)
  T/C: 94 % of control
dose: 400.0 mg/kg/injection, schedule: Q04DX003 (ip), vehicle: Klucel (hydroxypropylcellulose) (HPC)
  T/C: 96 % of control

## CN=C(N)C(C)SS(=O)(=O)O (stereo not given)
dose: 50.0 mg/kg/injection, schedule: Q01DX009 (ip), vehicle: Klucel (hydroxypropylcellulose) (HPC)
  T/C: 101 % of control
dose: 50.0 mg/kg/injection, schedule: Q04DX002 (ip), vehicle: Klucel (hydroxypropylcellulose) (HPC)
  T/C: 106 % of control
dose: 100.0 mg/kg/injection, schedule: Q01DX009 (ip), vehicle: Klucel (hydroxypropylcellulose) (HPC)
  T/C: 107 % of control
dose: 100.0 mg/kg/injection, schedule: Q04DX002 (ip), vehicle: Klucel (hydroxypropylcellulose) (HPC)
  T/C: 92 % of control
dose: 200.0 mg/kg/injection, schedule: Q01DX009 (ip), vehicle: Klucel (hydroxypropylcellulose) (HPC)
  T/C: 104 % of control
dose: 200.0 mg/kg/injection, schedule: Q04DX002 (ip), vehicle: Klucel (hydroxypropylcellulose) (HPC)
  T/C: 89 % of control and 91 % of control

## CC(C)(NC(=O)NCCCl)C(=O)O
[11]
  T/C: 105 % of control
[12]
  T/C: 96 % of control
[13]
  T/C: 94 % of control

## Cc1ccccc1[P+](Cc1ccccc1)(c1ccccc1C)c1ccccc1C
dose: 15.0 mg/kg/injection, schedule: Q01DX001 (ip), vehicle: carboxymethylcellulose (CMC)
  T/C: 96 % of control
dose: 30.0 mg/kg/injection, schedule: Q01DX001 (ip), vehicle: carboxymethylcellulose (CMC)
  T/C: 94 % of control
dose: 60.0 mg/kg/injection, schedule: Q01DX001 (ip), vehicle: carboxymethylcellulose (CMC)
  T/C: 94 % of control

## Cc1ccc(C)c(NC(=O)N2CCN(C)CC2)c1
[14]
  T/C: 97 % of control
[15]
  T/C: 100 % of control

## ClC(Cl)(Cl)c1cc(C(Cl)(Cl)Cl)nc(NCCCN2CCCC2)n1
[18]
  T/C: 99 % of control
dose: 200.0 mg/kg/injection, schedule: Q01DX009 (ip), vehicle: saline with Tween-80
  T/C: 96 % of control
dose: 400.0 mg/kg/injection, schedule: Q01DX009 (ip), vehicle: saline with Tween-80
  T/C: 95 % of control

## CC(NC(=O)NCCCl)c1ccccc1 (stereo not given)
[19]
  T/C: 100 % of control
[20]
  T/C: 90 % of control
[9]
  T/C: 100 % of control and 90 % of control and 94 % of control
[10]
  T/C: 102 % of control

## CCC(=CCC1=C(O)c2ccccc2C(=O)C1=O)CC
dose: 25.0 mg/kg/injection, schedule: Q01DX009 (ip), vehicle: water
  T/C: 120 % of control
dose: 50.0 mg/kg/injection, schedule: Q01DX009 (ip), vehicle: water
  T/C: 97 % of control
dose: 100.0 mg/kg/injection, schedule: Q01DX001 (ip), vehicle: water
  T/C: 103 % of control
dose: 100.0 mg/kg/injection, schedule: Q01DX009 (ip), vehicle: water
  T/C: 100 % of control
dose: 200.0 mg/kg/injection, schedule: Q01DX009 (ip), vehicle: water
  T/C: 94 % of control

## COc1ccc(N=NN(C)C)cc1
dose: 6.25 mg/kg/injection, schedule: Q01DX009 (ip), vehicle: saline with Tween-80
  T/C: 98 % of control
[2]
  T/C: 100 % of control
dose: 12.5 mg/kg/injection, schedule: Q04DX003 (ip), vehicle: saline with Tween-80
  T/C: 107 % of control
dose: 18.75 mg/kg/injection, schedule: Q01DX001 (ip), vehicle: saline with Tween-80
  T/C: 107 % of control
[3]
  T/C: 100 % of control
[19]
  T/C: 108 % of control
dose: 37.5 mg/kg/injection, schedule: Q01DX001 (ip), vehicle: saline with Tween-80
  T/C: 108 % of control
[21]
  T/C: 104 % of control
[20]
  T/C: 115 % of control
[9]
  T/C: 108 % of control

## COc1cc(C(=O)NC(CCC(=O)O)C(=O)O)ccc1N(C)Cc1cnc2nc(N)nc(N)c2n1 (stereo not given)
dose: 6.25 mg/kg/injection, schedule: Q01DX009 (ip), vehicle: sodium bicarbonate
  T/C: 154 % of control
dose: 25.0 mg/kg/injection, schedule: Q01DX009 (ip), vehicle: sodium bicarbonate
  T/C: 178 % of control

## O=C(O)C1CCCN1 (stereo not given)
dose: 100.0 mg/kg/injection, schedule: Q01DX001 (ip), vehicle: saline
  T/C: 100 % of control
dose: 200.0 mg/kg/injection, schedule: Q01DX001 (ip), vehicle: saline
  T/C: 87 % of control
dose: 400.0 mg/kg/injection, schedule: Q01DX001 (ip), vehicle: saline
  T/C: 97 % of control

## O=c1[nH]nc(S(=O)(=O)NC2CCCCC2)c(=O)[nH]1
[16]
  T/C: 101 % of control
[17]
  T/C: 95 % of control
dose: 400.0 mg/kg/injection, schedule: Q01DX001 (ip), vehicle: carboxymethylcellulose (CMC)
  T/C: 110 % of control

## O=C(O)c1ccccc1[N+](=O)[O-]
[11]
  T/C: 99 % of control
[12]
  T/C: 97 % of control
[13]
  T/C: 96 % of control

## Cc1cc(OC(=O)Nc2ccc(Cl)cc2Cl)c(C)cc1Cl
[2]
  T/C: 95 % of control
[3]
  T/C: 91 % of control
[21]
  T/C: 91 % of control
[18]
  T/C: 98 % of control
